# Data published in patent US20200061062A1, “INHIBITORS OF HUMAN PHOSPHATIDYLINOSITOL 3-KINASE DELTA” (ICOS Corporation, priority 2000, published 2020).
# Columns and labels:
# PI3Kα [1] = target: T1, PI3Kα (Homo sapiens, UniProt P42336); assay: Biochemical assay using 200 μM ATP, Alpha
# T1 construct: His tag (pFastbac HTb vector) (N); FLAG; made in house; host or cells: Sf21 insect cells (baculovirus)
# Experimental: (§2) PI3Kδ catalyzes a phosphotransfer from γ-[^32P]ATP to PIP2/PS liposomes at the D3′ position of the PIP2 lipid inositol ring. This reaction is MgCl2 dependent and is quenched in high molarity potassium phosphate buffer pH 8.0 containing 30 mM EDTA. […] The reaction products (and all unlabelled products) are transferred to a 96-well, prewetted PVDF filter plate, filtered, and washed in high molarity potassium phosphate. Scintillant is added to the dried wells and the incorporated radioactivity is quantitated.
# (§3) This dilution established a final concentration of 200 μM ATP in the reaction volume. The reaction was stopped with 150 μL quench buffer (1.0 M potassium phosphate pH 8.0, 30 mM EDTA). A portion of the quenched solution (180 μL) was then transferred to a PVDF filter plate (Millipore # MAIP NOB prewetted with sequential 200 μL washes of 100% methanol, water, and finally 1.0 M potassium phosphate pH 8.0 wash buffer).
# (§4) The PVDF filter plate was aspirated under moderate vacuum (2-5 mm Hg), washed with 5×200 μL of wash buffer, and then dried by aspiration. The filter was subsequently blotted, allowed to air dry completely, and inserted into a Wallac counting cassette with 50 μL of Ecoscint scintillation cocktail added per well.
# (§5) Subsequent selectivity assays were done similarly using the same 3× substrate stocks except they contained 0.05 mCi/mL γ[^32P]ATP and 3 mM PIP2. Subsequent selectivity assays also used the same 3× enzyme stocks, except they now contained 3 nM of any given PI3K isoform.
# (§6) For all selectivity assays, the test compounds were weighed out and dissolved into 10-50 mM stocks in 100% DMSO (depending on their respective solubilities) and stored at −20° C. […] From these dilutions, 20 μL was added into the assay wells alongside water blanks used for the enzyme (positive) control and the no enzyme (background) control.
# (§7) This selectivity protocol is identical to that described above, except the 3× stock ATP concentration was 600 μM.
# PI3Kδ [2] = target: T2, PI3Kδ (Homo sapiens, UniProt O00329, S253N); assay: Biochemical assay using 200 μM ATP, Delta;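 also: radiometric filter-binding assay: PI3Kδ transfers ³²P from γ-[³²P]ATP onto PIP2/PS liposomes, counted by scintillation, enzyme-only wells as positive control, no-enzyme wells as background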
# T2 sequence (O00329 whole entry S253N): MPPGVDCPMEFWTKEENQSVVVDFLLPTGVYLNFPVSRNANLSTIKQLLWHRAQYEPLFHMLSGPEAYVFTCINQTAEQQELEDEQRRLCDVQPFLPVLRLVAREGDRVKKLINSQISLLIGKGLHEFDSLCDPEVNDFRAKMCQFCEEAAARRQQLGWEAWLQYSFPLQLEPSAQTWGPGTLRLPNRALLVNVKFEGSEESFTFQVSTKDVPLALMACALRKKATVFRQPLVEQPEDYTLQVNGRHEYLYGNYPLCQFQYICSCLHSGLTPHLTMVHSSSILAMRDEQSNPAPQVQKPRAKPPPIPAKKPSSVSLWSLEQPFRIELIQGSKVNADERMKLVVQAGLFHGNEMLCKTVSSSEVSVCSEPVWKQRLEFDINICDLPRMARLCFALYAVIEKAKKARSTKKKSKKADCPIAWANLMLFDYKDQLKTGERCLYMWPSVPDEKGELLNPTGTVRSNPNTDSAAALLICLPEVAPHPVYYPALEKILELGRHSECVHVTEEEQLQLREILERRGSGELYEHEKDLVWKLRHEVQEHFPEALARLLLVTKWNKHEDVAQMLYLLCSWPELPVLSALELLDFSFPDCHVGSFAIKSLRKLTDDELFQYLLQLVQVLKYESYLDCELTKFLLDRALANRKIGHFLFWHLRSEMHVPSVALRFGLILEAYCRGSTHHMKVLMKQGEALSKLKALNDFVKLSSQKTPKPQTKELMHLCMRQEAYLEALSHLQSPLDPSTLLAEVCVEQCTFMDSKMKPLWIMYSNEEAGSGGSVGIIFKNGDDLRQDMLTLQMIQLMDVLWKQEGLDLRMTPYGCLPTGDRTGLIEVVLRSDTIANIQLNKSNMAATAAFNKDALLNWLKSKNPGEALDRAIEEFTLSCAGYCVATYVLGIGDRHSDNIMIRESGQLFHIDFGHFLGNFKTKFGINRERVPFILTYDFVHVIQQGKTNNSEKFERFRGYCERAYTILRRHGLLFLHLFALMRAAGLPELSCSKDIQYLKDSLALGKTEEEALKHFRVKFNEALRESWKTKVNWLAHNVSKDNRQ
# T2 sequence (P27986 whole entry partner): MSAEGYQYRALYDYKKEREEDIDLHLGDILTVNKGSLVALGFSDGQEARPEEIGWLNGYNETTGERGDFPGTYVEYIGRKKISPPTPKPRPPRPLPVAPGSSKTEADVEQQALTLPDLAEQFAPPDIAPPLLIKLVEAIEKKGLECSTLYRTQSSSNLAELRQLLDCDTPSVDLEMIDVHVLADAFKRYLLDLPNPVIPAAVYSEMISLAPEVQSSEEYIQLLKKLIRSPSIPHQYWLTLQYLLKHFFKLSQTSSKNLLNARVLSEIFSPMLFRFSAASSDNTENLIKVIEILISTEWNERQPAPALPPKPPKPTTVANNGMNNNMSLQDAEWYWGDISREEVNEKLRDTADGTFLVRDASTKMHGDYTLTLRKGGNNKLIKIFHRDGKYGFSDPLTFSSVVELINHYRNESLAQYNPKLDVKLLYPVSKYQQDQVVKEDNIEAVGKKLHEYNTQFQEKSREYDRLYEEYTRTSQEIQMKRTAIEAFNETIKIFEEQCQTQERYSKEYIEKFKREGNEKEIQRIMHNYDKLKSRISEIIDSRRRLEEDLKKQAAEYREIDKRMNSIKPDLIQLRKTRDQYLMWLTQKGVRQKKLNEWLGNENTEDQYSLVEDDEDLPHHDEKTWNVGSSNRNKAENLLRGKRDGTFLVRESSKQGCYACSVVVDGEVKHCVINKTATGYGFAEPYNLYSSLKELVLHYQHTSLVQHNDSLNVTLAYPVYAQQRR
# PI3Kα [3] = target: T1, PI3Kα; assay: Biochemical assay of PI3K potency and selectivity using 20 μM ATP, Alpha; conditions: for Alpha/Delta Ratio / IC50: 20 μM ATP; for Alpha/Delta Ratio: ratio of IC50 values, > = hypothetical ratio with 100 μM substituted for the missing IC50; for remaining activity at 100 µM: read-out: percent activity remaining at 100 μM, 20 μM ATP, 100 μM compound did not inhibit by at least 50%; for IC50: read-out: Alpha IC50
# In short: (§1)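 Radioactive phosphate transfer from γ-[32P]ATP onto PIP2/PS liposomes was measured in 20 mM HEPES, pH 7.4, at 20 μM ATP. The 3× substrate stock contained […] and 6 μM PIP2/PS.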
# PI3Kγ [4] = target: T3, PI3Kγ (Homo sapiens, UniProt P48736); assay: Biochemical assay of PI3K potency and selectivity using 20 μM ATP, Gamma
# T3 construct: His tag (pFastbac HTb vector) (N); FLAG (N); made in house; host or cells: Sf21 insect cells (baculovirus)
# T3 sequence (P48736 whole entry): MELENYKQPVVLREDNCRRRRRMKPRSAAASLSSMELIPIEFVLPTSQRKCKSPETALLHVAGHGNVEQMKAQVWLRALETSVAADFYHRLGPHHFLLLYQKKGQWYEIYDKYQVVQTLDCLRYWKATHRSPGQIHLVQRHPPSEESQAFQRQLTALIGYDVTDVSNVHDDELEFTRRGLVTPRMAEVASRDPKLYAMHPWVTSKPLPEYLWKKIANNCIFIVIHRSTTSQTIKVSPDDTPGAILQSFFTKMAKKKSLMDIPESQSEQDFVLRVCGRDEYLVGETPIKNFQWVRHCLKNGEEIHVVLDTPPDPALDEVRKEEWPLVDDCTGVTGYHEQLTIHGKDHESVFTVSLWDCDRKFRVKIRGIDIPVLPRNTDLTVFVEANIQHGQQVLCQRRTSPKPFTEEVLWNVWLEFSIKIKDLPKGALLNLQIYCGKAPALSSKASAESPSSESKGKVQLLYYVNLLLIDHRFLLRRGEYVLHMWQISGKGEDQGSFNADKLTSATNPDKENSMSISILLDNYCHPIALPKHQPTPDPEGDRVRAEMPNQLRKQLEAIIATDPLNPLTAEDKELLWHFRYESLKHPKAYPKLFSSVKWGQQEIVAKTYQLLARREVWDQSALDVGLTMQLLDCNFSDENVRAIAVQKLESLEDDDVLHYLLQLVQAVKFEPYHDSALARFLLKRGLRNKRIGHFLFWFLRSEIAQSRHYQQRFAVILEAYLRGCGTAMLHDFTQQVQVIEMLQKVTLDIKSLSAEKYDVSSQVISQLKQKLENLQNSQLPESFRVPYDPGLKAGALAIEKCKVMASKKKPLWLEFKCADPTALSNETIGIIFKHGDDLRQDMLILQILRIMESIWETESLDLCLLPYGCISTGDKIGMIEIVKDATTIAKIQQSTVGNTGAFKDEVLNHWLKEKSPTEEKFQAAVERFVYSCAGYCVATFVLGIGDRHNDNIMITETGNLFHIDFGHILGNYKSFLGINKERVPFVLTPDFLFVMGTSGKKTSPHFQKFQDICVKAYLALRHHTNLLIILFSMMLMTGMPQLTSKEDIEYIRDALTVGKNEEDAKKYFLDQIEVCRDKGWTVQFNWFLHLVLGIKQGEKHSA
# Text: Recombinant baculoviruses containing the above clones were generated using manufacturer's recommended protocol (Life Technologies). Baculoviruses expressing His-tagged p110α, p110γ, or p110δ catalytic subunit and p85 subunit were coinfected into Sf21 insect cells. To enrich the heterodimeric enzyme complex, an excess amount of baculovirus expressing p85 subunit was infected, and the His-tagged p110 catalytic subunit complexed with p85 was purified on nickel affinity column. […] In an alternate approach, p101 can be cloned into baculovirus, to permit coexpression with its preferred binding partner p110γ. […]
# PI3Kβ [5] = target: T4, PI3Kβ (Homo sapiens, UniProt P42338); assay: Biochemical assay of PI3K potency and selectivity using 20 μM ATP, Beta; conditions: 20 μM ATP; for Beta/Delta Ratio: ratio of IC50 values, > = hypothetical ratio with 100 μM substituted for the missing IC50; for IC50: read-out: Beta IC50
# T4 construct: His tag (pFastbac HTa vector) (N); FLAG (N); made in house; host or cells: Sf21 insect cells (baculovirus)
# T4 sequence (P42338 whole entry): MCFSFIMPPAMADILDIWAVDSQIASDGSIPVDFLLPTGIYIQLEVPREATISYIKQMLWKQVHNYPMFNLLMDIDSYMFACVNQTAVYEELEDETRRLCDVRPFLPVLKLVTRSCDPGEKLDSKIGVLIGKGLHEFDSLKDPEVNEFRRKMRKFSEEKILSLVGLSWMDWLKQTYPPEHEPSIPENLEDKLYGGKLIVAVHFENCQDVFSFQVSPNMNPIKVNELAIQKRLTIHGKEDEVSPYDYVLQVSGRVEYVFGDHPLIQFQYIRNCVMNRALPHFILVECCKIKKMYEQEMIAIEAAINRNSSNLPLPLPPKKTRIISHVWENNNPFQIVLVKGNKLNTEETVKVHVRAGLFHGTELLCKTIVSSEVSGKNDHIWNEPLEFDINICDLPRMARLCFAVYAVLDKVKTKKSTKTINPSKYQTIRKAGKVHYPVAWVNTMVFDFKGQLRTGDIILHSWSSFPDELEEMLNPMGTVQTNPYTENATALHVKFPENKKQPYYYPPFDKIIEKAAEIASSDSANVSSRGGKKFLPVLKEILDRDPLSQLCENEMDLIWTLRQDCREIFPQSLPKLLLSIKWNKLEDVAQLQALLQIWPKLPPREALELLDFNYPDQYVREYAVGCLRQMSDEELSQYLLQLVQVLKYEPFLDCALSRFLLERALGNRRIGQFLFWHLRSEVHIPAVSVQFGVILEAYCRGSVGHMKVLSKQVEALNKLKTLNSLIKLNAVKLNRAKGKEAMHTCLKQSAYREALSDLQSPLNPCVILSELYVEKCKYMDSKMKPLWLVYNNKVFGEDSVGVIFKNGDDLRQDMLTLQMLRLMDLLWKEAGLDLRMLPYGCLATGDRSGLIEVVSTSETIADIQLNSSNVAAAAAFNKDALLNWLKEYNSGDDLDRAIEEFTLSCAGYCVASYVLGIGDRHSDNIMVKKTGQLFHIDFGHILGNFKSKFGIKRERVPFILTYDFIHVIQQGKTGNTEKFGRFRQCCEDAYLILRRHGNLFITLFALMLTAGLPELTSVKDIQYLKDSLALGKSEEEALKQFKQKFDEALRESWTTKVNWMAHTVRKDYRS
# T4 sequence (P27986 whole entry partner): as the sequence (P27986 whole entry partner) above
# In short: as §1
# [6] = system: Murine splenocytes (Balb/c); assay: B cell proliferation in response to cell surface IgM stimulation; type: cell-based; conditions: Mus musculus, Splenocyte; stimulated B cell proliferation; read-out: Mouse BCR Stim (EC50)
# In short: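 Balb/c splenocytes (2×10^5/well, 10% FBS/RPMI) preincubated 30-60 min with inhibitor, then stimulated with goat F(ab′)2 anti-mouse IgM μ-chain at 25 μg/mL final. Cultured 3 days at 37° C., [^3H]-thymidine pulsed for final 4 h; incorporation counted as CPM. Values are EC50 (μM).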
# human neutrophils = assay: Elastase exocytosis from neutrophils (fMLP-induced); type: cell-based; conditions: neutrophil (PMN) elastase release
# Experimental: Aliquots (8 mL) of heparinized blood from healthy volunteers were layered on 3 mL cushions of 7.3% FICOLL® (Sigma, St. Louis, Mo.) and 15.4% HYPAQUE® (Sigma) and centrifuged at 900 rpm for 30 min at room temperature in a table top centrifuge (Beckman). The neutrophil-rich band just above the FICOLL®-HYPAQUE® cushion was collected and washed with Hanks' balanced salt solution (HBSS) containing 0.1% gelatin. Residual erythrocytes were removed by hypotonic lysis with 0.2% NaCl. The neutrophil preparation was washed twice with HBSS containing 0.1% gelatin and used immediately.
# In addition to superoxide generation, activated neutrophils also respond by releasing several proteases that are responsible for the destruction of tissues and cartilage during inflammation. As an indication of protease release, the effect of D-000 on elastase exocytosis was measured. Elastase exocytosis was quantitated by modification of the procedure described by Ossanna et al. (J Clin Invest, 77:1939-1951 (1986)), as follows. Purified human neutrophils (0.2×10^6) (treated with either DMSO or a serial dilution of D-000 in DMSO) were stimulated with fMLP in PBS containing 0.01 mg/mL cytochalasin B, 1.0 μM sodium azide (NaN3), 5 μg/mL L-methionine and 1 μM fMLP for 90 min at 37° C. in a 96-well plate. At the end of the incubation period, the plate was centrifuged for 5 min at 1000 rpm, and 90 μL of the supernatant was transferred to 10 μL of 10 mM solution of an elastase substrate peptide, MeO-suc-Ala-Ala-Pro-Val-pNA, wherein MeO-suc=methoxy-succinyl; pNA=p-nitroanilide (Calbiochem, San Diego, Calif.). Absorbance at 410 nm was monitored for 2 hr in a 96-well plate reader. To measure the relative amounts of elastase excytosed, all absorbance values were normalized to the values without any inhibitor. […] Inhibition was half-maximal at a concentration of about 2-3 μM D-000.
# Using the methods described in Examples 3-5, above, compounds of the invention were tested for inhibitory activity and potency in assays of stimulated B and T cell proliferation, neutrophil (PMN) migration, and neutrophil (PMN) elastase release. In Table 4, the values shown are effective concentrations of the compound (EC50; μM). Where no value is given, no assay was performed.
# PI3Kγ [7] = target: T3, PI3Kγ; assay: Biochemical assay using 200 μM ATP, Gamma
# Experimental: as §2, §3, §4, §5, §6, §7
# PI3Kβ [8] = target: T4, PI3Kβ; assay: Biochemical assay using 200 μM ATP, Beta
# Experimental: as §2, §3, §4, §5, §6, §7
# PI3Kδ [9] = target: T2, PI3Kδ; assay: Biochemical assay of PI3K potency and selectivity using 20 μM ATP, Delta; set-up: His tag (pFastbac HTb vector) (N); FLAG; made in house; host or cells: Sf21 insect cells (baculovirus); conditions: 20 μM ATP; read-out: Delta IC50
# In short: as §1
# T cell proliferation = assay: Stimulated T cell proliferation (Mouse TCE Stim, Table 4); type: cell-based; conditions: stimulated T cell proliferation, read-out: Mouse TCE Stim (EC50)
# T1 sequence (P42336 whole entry): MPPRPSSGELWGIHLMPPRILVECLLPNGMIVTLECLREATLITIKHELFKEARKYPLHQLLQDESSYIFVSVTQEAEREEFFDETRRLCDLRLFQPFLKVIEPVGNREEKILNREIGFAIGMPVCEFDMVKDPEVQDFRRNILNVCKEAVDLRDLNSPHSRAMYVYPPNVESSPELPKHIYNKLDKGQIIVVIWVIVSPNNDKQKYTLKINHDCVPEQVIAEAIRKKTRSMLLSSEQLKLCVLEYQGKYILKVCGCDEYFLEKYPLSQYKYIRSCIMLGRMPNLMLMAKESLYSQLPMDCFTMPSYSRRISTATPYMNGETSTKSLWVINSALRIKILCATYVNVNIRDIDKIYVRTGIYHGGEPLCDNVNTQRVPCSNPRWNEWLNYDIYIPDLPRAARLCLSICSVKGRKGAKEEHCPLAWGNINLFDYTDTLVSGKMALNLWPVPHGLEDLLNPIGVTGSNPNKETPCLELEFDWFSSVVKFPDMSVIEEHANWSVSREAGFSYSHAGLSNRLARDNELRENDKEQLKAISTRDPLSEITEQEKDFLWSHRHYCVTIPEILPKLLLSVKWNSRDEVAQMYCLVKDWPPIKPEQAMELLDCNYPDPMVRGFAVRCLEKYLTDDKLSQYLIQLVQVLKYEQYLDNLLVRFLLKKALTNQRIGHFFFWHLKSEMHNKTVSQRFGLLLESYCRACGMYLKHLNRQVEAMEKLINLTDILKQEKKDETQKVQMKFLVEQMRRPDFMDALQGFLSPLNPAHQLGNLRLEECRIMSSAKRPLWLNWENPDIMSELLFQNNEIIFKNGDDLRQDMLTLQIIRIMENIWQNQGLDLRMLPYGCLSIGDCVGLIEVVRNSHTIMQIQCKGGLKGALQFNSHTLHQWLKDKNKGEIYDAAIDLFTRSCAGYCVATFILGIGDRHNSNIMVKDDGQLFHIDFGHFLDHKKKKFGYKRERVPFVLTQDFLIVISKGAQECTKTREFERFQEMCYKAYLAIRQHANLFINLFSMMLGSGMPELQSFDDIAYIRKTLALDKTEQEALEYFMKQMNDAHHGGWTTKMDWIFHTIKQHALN
# T1 sequence (P27986 whole entry partner): as the sequence (P27986 whole entry partner) above
Gamma/Delta Ratio (PI3Kγ [4]; ratio of IC50 values),"remaining activity at 100 µM (PI3Kβ [5]; read-out: Beta: percent activity remaining at 100 μM, 100 μM compound did not inhibit by at least 50%) [%]",IC50 (PI3Kα [3]) [µM],SMILES,Alpha/Delta Ratio (PI3Kα [1]),IC50 (PI3Kδ [2]) [µM],Alpha/Delta Ratio (PI3Kα [3]),remaining activity at 100 µM (PI3Kα [3]) [%],IC50 (PI3Kγ [4]) [µM],Beta/Delta Ratio (PI3Kβ [5]),EC50 [6] [µM],EC50 (human neutrophils) [µM],Gamma/Delta Ratio (PI3Kγ [7]),IC50 (PI3Kγ [7]) [µM],Beta/Delta Ratio (PI3Kβ [8]),IC50 (PI3Kδ [9]) [µM],EC50 (T cell proliferation) [µM],melting point,IC50 (PI3Kβ [5]) [µM],IC50 (PI3Kβ [8]) [µM],IC50 (PI3Kα [1]) [µM]
100,63,,"CCCCn1c(CSc2ncnc3[nH]cnc23)nc2ccccc2c1=O [Compound D-038, 3-butyl-2-(9H-purin-6-ylsulfanylmethyl)-3H-quinazolin-4-one]",77,1.8,>167,77,60,>170,1.4 ± 0.1,5,31,55,82,0.6,2.9,,,,
,,,"Nc1ncnc2c1ncn2Cc1nc2cccc(Cl)c2c(=O)n1-c1ccccc1Cl [Compound D-006, 2-(6-Aminopurin-o-ylmethyl)-5-chloro-3-(2-chlorophenyl)-3H-quinazolin-4-one]",226,0.92 ± 0.1,>652,78,,38,0.2 ± 0.1,0.3 ± 0.1,95,87 ± 33,48,0.15,5.3,245.7 to 246 °C,6,44 ± 5,
,,9,"Cc1cccc2nc(CSc3ncnc4[nH]cnc34)n(-c3ccccc3C(C)C)c(=O)c12 [Compound D-035, 3-(2-isopropylphenyl)-5-methyl-2-(9H-purin-6-ylsulfanylmethyl)-3H-quinazolin-4-one]",193,0.49 ± 0.1,199,,,65,0.2 ± 0.1,0.3 ± 0.1,14,6.8 ± 1,69,0.05,2.9 ± 0.7,,3,34 ± 6,95 ± 6
,,,"Cc1cccc2nc(Cn3cnc4c(N)ncnc43)n(-c3ccccc3Cl)c(=O)c12 [Compound D-007, 2-(6-Aminopurin-9-ylmethyl)-3-(2-chlorophenyl)-5-methyl-3H-quinazolin-4-one]",252,0.73 ± 0.2,>619,82,,188,0.3 ± 0.1,0.4,121,88 ± 4,99,0.16,4.2,190.7 to 190.9 °C,30,72 ± 12,
,,67,"O=c1c2cc3ccccc3cc2nc(CSc2ncnc3[nH]cnc23)n1-c1ccccc1Cl [Compound D-019, 3-(2-Chlorophenyl)-2-(9H-purin-6-ylsulfanylmethyl)-3H-benzo[g]quinazolin-4-one]",7,30,10,,,15,0.9 ± 0.01,,1,33,3,7,0.9,247.8 to 254.4 °C (dec.),105,100,
,,,"Nc1ncnc2c1ncn2Cc1nc2cccc(F)c2c(=O)n1-c1ccccc1Cl [Compound D-005, 2-(6-Aminopurin-9-ylmethyl)-3-(2-chlorophenyl)-5-fluoro-3H-quinazolin-4-one]",20,11,>121,89,,56,0.7 ± 0.1,4.3 ± 1,17,,16,0.8,3.9,159 to 172 °C (dec.),46,,
,,,"O=c1c2ccc(F)cc2nc(CSc2ncnc3[nH]cnc23)n1-c1ccccc1Cl [Compound D-022, 3-(2-Chlorophenyl)-7-fluoro-2-(9H-purin-6-ylsulfanylmethyl)-3H-quinazolin-4-one]",,4.2,,,40,,1.8,,,,,0.8,2.3,151.4 to 154.2 °C,110,,

SMILES,Gamma/Delta Ratio (PI3Kγ [4]; ratio of IC50 values),"remaining activity at 100 µM (PI3Kβ [5]; read-out: Beta: percent activity remaining at 100 μM, 100 μM compound did not inhibit by at least 50%) [%]",IC50 (PI3Kα [3]) [µM],Alpha/Delta Ratio (PI3Kα [1]),IC50 (PI3Kδ [2]) [µM],Alpha/Delta Ratio (PI3Kα [3]),remaining activity at 100 µM (PI3Kα [3]) [%],IC50 (PI3Kγ [4]) [µM],Beta/Delta Ratio (PI3Kβ [5]),EC50 [6] [µM],EC50 (human neutrophils) [µM],Gamma/Delta Ratio (PI3Kγ [7]),IC50 (PI3Kγ [7]) [µM],Beta/Delta Ratio (PI3Kβ [8]),IC50 (PI3Kδ [9]) [µM],EC50 (T cell proliferation) [µM],melting point,IC50 (PI3Kβ [5]) [µM],IC50 (PI3Kβ [8]) [µM],IC50 (PI3Kα [1]) [µM]
"Cc1cccc2nc(Cn3cnc4c(N)ncnc43)n(-c3ccccc3F)c(=O)c12 [Compound D-048, 2-(6-aminopurin-9-ylmethyl)-3-(2-fluorophenyl)-5-methyl-3H-quinazolin-4-one]",,,70,67,1.4 ± 0.9,449,,,90,0.4 ± 0.2,0.9 ± 0.2,91,123 ± 40,70,0.16,5,,14,95 ± 7,90 ± 57
